The text below walks through data of US12215107B1, “Pyrazino[1′,2′:1,5]pyrazolo[4,3-c] [2,6] naphthyridine compounds as CK2 inhibitors” (KING FAISAL UNIVERSITY, priority 2024, dated 2025).

The test system of experiment [1] is PC3 (prostate). The experiment is described as follows: MTT in vitro cytotoxic activity assay, PC3. It is filed as cell-based. The conditions noted are these: Homo sapiens, Prostate cell, cells exposed for 96 hours, read-out: Cytotoxicity activity IC50 (50% inhibition of cell proliferation). The method, then: (§1) Compounds 1-16 were screened for their in vitro cytotoxic activity utilizing a 3-(4,5-dimethyl-thiazol-2-yl)-2,5-diphenyltetrazolium bromide (MTT) assay against selected cancer human cell lines consisting of PC3 (prostate), HCT116 (colon), A375 (melanoma), H1299 (lung), MIAPaCa-2 (pancreas), HL60 (leukemia), MCF7 (breast), MDA-MB-231 (breast) (T. Mosmann, J. Immunol. Meth., 1983, 65, 55-63). The cells were cultured at 37° C. in RMPI1640 medium supplemented with 10% fetal bovine serum, 50 IU/mL penicillin, and 50 μg/mL streptomycin in a 5% CO2 incubator. All cells were sub-cultured 3 times/week by trypsinisation. Viable cells were seeded and allowed to adhere for 12 hours before a test drug was added in 96-well plates at an initial density of 1.0×10^5 cells/mL. Tumor cell lines were separately exposed to various concentrations of the tested compounds followed by incubation at a temperature of 37° C. during 96 hours inside a medium of fresh RMPI 1640. Cells were subsequently incubated at 37° C. using MTT at 0.5 mg/mL during 4 hours. After removal of supernatant, formazan crystals were dissolved in isopropanol and the optical density was measured at 570 nm. CX-4945 was used as a positive control.

Experiment [2] deals with HCT116 (colon). The experiment is described as follows: MTT in vitro cytotoxic activity assay, HCT116. It is filed as cell-based. Conditions: Homo sapiens, HCT-116, cells exposed for 96 hours, read-out: Cytotoxicity activity IC50 (50% inhibition of cell proliferation). On the procedure:
as §1

The test system of experiment [3] is A375 (melanoma). The experiment is described as follows: MTT in vitro cytotoxic activity assay, A375. It is filed as cell-based. The conditions noted are these: Homo sapiens, A-375, cells exposed for 96 hours, read-out: Cytotoxicity activity IC50 (50% inhibition of cell proliferation). The method, then: as §1
The subject of experiment [4] is H1299 (lung). In words: MTT in vitro cytotoxic activity assay, H1299. The experiment is classed as cell-based. The conditions noted are these: Homo sapiens, NCI-H1299, cells exposed for 96 hours, read-out: Cytotoxicity activity IC50 (50% inhibition of cell proliferation). On the procedure: as §1
Experiment [5] concerns MIAPaCa-2 (pancreas). The experiment is described as follows: MTT in vitro cytotoxic activity assay, MIAPaCa-2. The experiment is classed as cell-based. Conditions: Homo sapiens, MIA PaCa-2, cells exposed for 96 hours, read-out: Cytotoxicity activity IC50 (50% inhibition of cell proliferation). On the procedure: as §1
Experiment [6] has as its system HL60 (leukemia). The experiment is described as follows: MTT in vitro cytotoxic activity assay, HL60. The experiment is classed as cell-based. Conditions: Homo sapiens, HL-60, cells exposed for 96 hours, read-out: Cytotoxicity activity IC50 (50% inhibition of cell proliferation). On the procedure:
as §1

For experiment [7], the system named is MCF7 (breast). In words: MTT in vitro cytotoxic activity assay, MCF7. The experiment is classed as cell-based. The conditions noted are these: Homo sapiens, cells exposed for 96 hours, read-out: Cytotoxicity activity IC50 (50% inhibition of cell proliferation). The method, then:
as §1

Experiment [8] deals with MDA-MB-231 (breast). In words: MTT in vitro cytotoxic activity assay, MDA-MB-231. The experiment is classed as cell-based. The conditions noted are these: Homo sapiens, cells exposed for 96 hours, read-out: Cytotoxicity activity IC50 (50% inhibition of cell proliferation). The method, then: as §1
Experiment [9] deals with T1, recombinant human CK2 (RRββ-holoenzyme) (Homo sapiens, UniProt P68400).
T1 construct: purchased Millipore
The experiment is described as follows: CK2 Kinase Assay (33P-ATP, filter plate). Conditions: final ATP concentration 15 μM, 10 minutes at 30° C.; read-out: protein kinase CK2 IC50. It is filed as biochemical. On the procedure: CK2 Kinase Assay was conducted using the protocol as described in Pierre F. et al; J. Med. Chem. 2011, 54, 635-654. The tested compounds in aqueous solution were added at a volume of 10 μL to a reaction mixture comprising 10 μL of assay dilution buffer (ADB; 20 mM MOPS, pH 7.2, 25 mM β-glycerol phosphate, 5 mM EGTA, 1 mM sodium orthovanadate, and 1 mM dithiothreitol), 10 μL of substrate peptide (RRRDDDSDDD, dissolved in ADB at a concentration of 1 mM), 10 μL of recombinant human CK2 (RRββ-holoenzyme, 25 ng dissolved in ADB; Millipore). Reactions were initiated by the addition of 10 μL of ATP solution (90% 75 mMMgCl2, 75 μM ATP (final ATP concentration: 15 μM) dissolved in ADB; 10% [γ-33P] ATP (stock 1 mCi/100 μL; 3000 Ci/mmol (Perkin-Elmer) and maintained for 10 minutes at 30° C. The reactions were quenched with 100 μL of 0.75% phosphoric acid and then transferred to and filtered through a phosphor cellulose filter plate (Millipore). After washing each well five times with 0.75% phosphoric acid, the plate was dried under vacuum for 5 min and, following the addition of 15 μL of scintillation fluid to each well, the residual radioactivity was measured using a Wallac […]. The IC50 values were derived from eight concentrations of test inhibitors.

T1 sequence (P68400 whole entry): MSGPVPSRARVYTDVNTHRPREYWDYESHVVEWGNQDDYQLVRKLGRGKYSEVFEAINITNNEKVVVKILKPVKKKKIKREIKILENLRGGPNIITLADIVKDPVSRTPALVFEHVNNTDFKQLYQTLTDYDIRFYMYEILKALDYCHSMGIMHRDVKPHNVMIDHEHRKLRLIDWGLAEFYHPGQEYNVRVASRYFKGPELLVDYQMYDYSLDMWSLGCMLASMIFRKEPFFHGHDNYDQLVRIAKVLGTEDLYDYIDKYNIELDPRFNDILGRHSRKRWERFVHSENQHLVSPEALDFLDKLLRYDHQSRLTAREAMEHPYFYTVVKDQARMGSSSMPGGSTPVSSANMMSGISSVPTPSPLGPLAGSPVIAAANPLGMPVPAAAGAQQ
T1 sequence (P67870 whole entry partner): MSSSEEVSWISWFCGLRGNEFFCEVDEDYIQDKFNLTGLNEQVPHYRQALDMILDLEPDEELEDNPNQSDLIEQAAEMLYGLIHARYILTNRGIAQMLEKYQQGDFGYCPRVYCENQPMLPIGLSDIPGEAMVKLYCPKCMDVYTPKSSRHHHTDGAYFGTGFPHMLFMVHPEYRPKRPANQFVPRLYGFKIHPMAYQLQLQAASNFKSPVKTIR

On to `Clc1cccc(Nc2nc3c(nn4ccncc34)c3cnccc23)c1` [Compound (1), N-(3-chlorophenyl)pyrazino[1′,2′:1,5]pyrazolo[4,3-c][2,6]naphthyridin-5-amine], for which the IC50 in experiment [1] worked out at 1.1 µM; in experiment [2], 1.5 µM; in [3], 3.2 µM; in experiment [4] it was 1.9 µM; in experiment [5], 1 µM; in experiment [6], 3.7 µM. Also, the IC50 in experiment [7] is 4.9 µM; in experiment [8], 4.1 µM; in experiment [9] it was 0.022 µM.
